Reference: patent publication US6486126B1, “Antioxidant activity in SDG metabolites” (University of Saskatchewan Technologies Incorporated, priority 1999, dated 2002)
Read-outs that look alike come from different tables or passages of the source.

What was measured:
[1] = test system: unstimulated blood (BL); experiment: Integrated luminol-dependent chemiluminescence of unstimulated blood; assay type: cell-based, human; conditions: 2.5 mg/ml, mean ± SE from 16 samples
Method: (§1) Antioxidant activity of SDG, SECO, ED, EL and vitamin E (alpha-tochopherol phosphate) was measured using the ability of these compounds to reduce the chemiluminescence of activated PMNLs [polymorphonuclear leukocytes chemiluminescence (PMNL-CL)]. Activated polymorphonuclear leukocytes produce superoxide anion (O2^−), hydrogen peroxide (H2O2), hydroxyl radical (.OH) and singlet oxygen (^1O2). Chemiluminescence is amplified by luminol, which is converted to an excited aminophthalate ion in the presence of oxidizing species like O2^−, H2O2, .OH and ^1O2. Luminol-dependent CL reflects the amount of activated oxygen species generated from activated phagocytes, thus, this method can be used to monitor the reactive oxygen species produced by PMNLs. Agents which scavenge O2^−, H2O2, .OH and ^1O2 would reduce PMNL-CL. The SDG, SECO, ED and EL were all obtained from Agriculture and Agri-Food Canada, Saskatoon, Saskatchewan.
Venous blood from healthy subjects, after their informed consent, was collected in ethylenediamine tetraacetic acid (EDTA)-containing tubes for PMNL counts, and PMNL-CL. PMNL and WBC counts were made using Technicon H6000 system (Technicon Instruments, Tarrytown, N.Y.). PMNL-CL a measure of reactive oxygen species produced by PMNLs was measured by a method described in Prasad et al., Effect of polymorphonuclear leukocyte-derived oxygen free radicals and hypochlorous acid or cardiac function and some biochemical parameters, Am. Heart J. 119:538-550, 1990. Blood (0.05 ml) was added to a glass tube containing Hank's balanced salt solution (HBSS) buffer (pH 7.40) and luminol at a final concentration of 10^−4 M. To assess the ability of various test materials in the varying amounts (1.0, 2.5, 5.0 and 10 mg/ml) in the powder form, were each added to the test tube containing blood, shaken well and incubated for 15 minutes at room temperature. The final volume of the mixture in these tubes was 0.5 ml. All the test tubes were placed in a luminometer for 5 min at 37° C., and phagocytosis was initiated by the addition of 0.1 ml (10 mg/ml) of opsonized zymosan prepared by previously described method (Prasad et al., 1990). The chemiluminescence was monitored with an Auto Lumat, LB953 luminometer (Egg Berthold, Berthold Analytical Instrument Inc., 472 Amherst Street, Nashua, N.H., 03063) for 3 seconds every 2 or 3 minutes (depending on the sample number) for a period of 60 minutes. The integrated area under the curve gives the total luminal-dependent chemiluminescent response during the period of monitoring, which represents the oxygen derived CL. […]
The results are expressed as mean±SE and n=sample size. […]

[2] = test system: zymosan-stimulated polymorphonuclear leukocytes; experiment: Luminol-dependent chemiluminescence of zymosan-stimulated PMNLs in blood (PMNL-CL); assay type: cell-based, human; conditions: for inhibition at 1000 µg/mL / inhibition at 2500 µg/mL / inhibition at 5000 µg/mL: Homo sapiens, Leukocyte; for antioxidant potency as compared to vitamin E: ratio of inhibition of PMNL-CL at 2.5 mg/ml, relative to vitamin E
Method: as §1
Venous blood from healthy subjects, after their informed consent, was collected in ethylenediamine tetraacetic acid (EDTA)-containing tubes for PMNL counts, and PMNL-CL. PMNL and WBC counts were made using Technicon H6000 system (Technicon Instruments, Tarrytown, N.Y.). PMNL-CL a measure of reactive oxygen species produced by PMNLs was measured by a method described in Prasad et al., Effect of polymorphonuclear leukocyte-derived oxygen free radicals and hypochlorous acid or cardiac function and some biochemical parameters, Am. Heart J. 119:538-550, 1990. Blood (0.05 ml) was added to a glass tube containing Hank's balanced salt solution (HBSS) buffer (pH 7.40) and luminol at a final concentration of 10^−4 M. To assess the ability of various test materials in the varying amounts (1.0, 2.5, 5.0 and 10 mg/ml) in the powder form, were each added to the test tube containing blood, shaken well and incubated for 15 minutes at room temperature. The final volume of the mixture in these tubes was 0.5 ml. All the test tubes were placed in a luminometer for 5 min at 37° C., and phagocytosis was initiated by the addition of 0.1 ml (10 mg/ml) of opsonized zymosan prepared by previously described method (Prasad et al., 1990). The chemiluminescence was monitored with an Auto Lumat, LB953 luminometer (Egg Berthold, Berthold Analytical Instrument Inc., 472 Amherst Street, Nashua, N.H., 03063) for 3 seconds every 2 or 3 minutes (depending on the sample number) for a period of 60 minutes. The integrated area under the curve gives the total luminal-dependent chemiluminescent response during the period of monitoring, which represents the oxygen derived CL. The difference in the integrated area under zymosan-activated in the absence and in the presence of various compounds under investigation is designated as particular compound inhibitable oxygen derived radical CL. The unit for chemiluminescence is in counts per minute (cpm). The integrated area under the curve is in cpm.m. The unit for chemiluminescence is cpm.m.10^−6 PMNLs because the chemiluminescence is expressed in terms of 10^−6 PMNL counts. The peak chemiluminescence is cpm 10^−6 PMNLs.
The results are expressed as mean±SE and n=sample size. One-way Analysis of Variance (ANOVA) followed by Scheffe test was used to derive differences between different groups. A “p” value of less than 0.05 was considered significant.

[3] = 1.0 mg/ml, concentration-response (FIGS. 4-8)
[4] = 2.5 mg/ml, concentration-response (FIGS. 4-8), read-out: inhibition of zymosan-stimulated PMNL-CL
[5] = 5.0 mg/ml, concentration-response (FIGS. 4-8)
[6] = zymosan-stimulated, 2.5 mg/ml, comparison experiment (FIG. 3), read-out: percentage inhibition of PMNL-CL
[7] = 2.5 mg/ml, concentration-response (FIGS. 4-8)
[8] = zymosan-stimulated, 2.5 mg/ml, comparison experiment (FIG. 3)
[9] = 10.0 mg/ml, concentration-response (FIGS. 4-8)

SMILES | Integrated CL of unstimulated blood (BL) in the presence of compound [1] | inhibition at 1000 µg/mL [2, 3] [%] | inhibition at 2500 µg/mL [2, 4] [%] | inhibition at 5000 µg/mL [2, 5] [%] | inhibition at 2500 µg/mL [2, 6] [%] | antioxidant potency as compared to vitamin E [2] [times] | antioxidant potency relative to SDG (times more potent than SDG) [2] [times] | inhibition of zymosan-stimulated PMNL-CL [2, 3] [%] | inhibition of zymosan-stimulated PMNL-CL [2, 7] [%] | inhibition of zymosan-stimulated PMNL-CL [2, 5] [%] | percentage inhibition of PMNL-CL [2, 8] [%] | inhibition of zymosan-stimulated PMNL-CL [2, 9] [%] | effect on zymosan-stimulated PMNL-CL (in words) ([2]; 1.0 mg/ml)
OC[C@H](Cc1cccc(O)c1)[C@H](CO)Cc1cccc(O)c1 [ED, enterodiol] | 1.073 ± 0.048 ×10^6 cpm · m · 10^−6 PMNLs | 82 | 96 | 95 | 94.2 | 5.02 | 3.95 |  |  |  |  |  | 
O=C1OC[C@H](Cc2cccc(O)c2)[C@H]1Cc1cccc(O)c1 [EL, enterolactone] | 2.177 ± 0.138 ×10^6 cpm · m · 10^−6 PMNLs | 81 | 86 | 83 | 81.6 | 4.35 | 3.43 |  |  |  |  |  | 
COc1cc(C[C@@H](CO[C@@H]2O[C@H](CO)[C@@H](O)[C@H](O)[C@H]2O)[C@H](CO[C@@H]2O[C@H](CO)[C@@H](O)[C@H](O)[C@H]2O)Cc2ccc(O)c(OC)c2)ccc1O [SDG, secoisolariciresinol diglucoside, reference compound] | 2.463 ± 0.159 ×10^6 cpm · m · 10^−6 PMNLs |  |  |  |  | 1.27 |  | 24 | 30 | 48 | 23.87 |  | 
COc1cc(C[C@@H](CO)[C@H](CO)Cc2ccc(O)c(OC)c2)ccc1O [SECO, secoisolariciresinol] | 0.878 ± 0.023 ×10^6 cpm · m · 10^−6 PMNLs |  |  |  |  | 4.86 | 3.82 | 78 | 93 | 99.5 | 91.2 | 100 | 
Cc1c(C)c2c(c(C)c1OP(=O)(O)O)CC[C@@](C)(CCC[C@H](C)CCC[C@H](C)CCCC(C)C)O2 [vitamin E, alpha-tochopherol phosphate, reference compound] |  |  |  |  |  |  |  |  | 17 | 88 | 18.75 | 97 | increase in the PMNL-CL
